Where two headings read alike, the source gives them in different places.
Key:
Assay in all cases: Sensitivity test (agar dilution), clinical isolate
P. aeruginosa 13224 = format: cell-based, Pseudomonas aeruginosa
Experimental: (§1) In addition, the antibacterial activities were tested against strains which are comparatively less sensitive to β-lactam compounds, namely clinically isolated 13 strains of Acinetobacter calcoaceticus and Acinetobacter lwoffi, clinically isolated 11 strains of Serratia marcescens, clinically isolated 12 strains of Burkholderia cepacia, and clinically isolated 15 strains of Pseudomonas aeruginosa.
(§2) According to the standard method of Japan Chemotherapeutic Society (Chemotherapy, vol. […], p 76-79 (1981)) the test was carried out using the agar dilution method. After dissolving test samples in distilled water, agar medium containing the test samples was prepared in such a manner that the final concentration became twice serial dilution by pouring serially diluted combination drug solution or a single drug solution into agar medium. As agar medium was used Mueller Hinton Agar medium (MHA). Then, each strain was cultivated over night at 37° C. in an incubator and suspended in buffered saline solution with gelatin (BSG) in the concentration of about 10^6 CFU/ml. The suspension (about 5 μl) containing test strains was inoculated to the medium containing the test samples by Micro Planter.
(§3) Each drug was weighed, and dissolved in distilled water to give a test sample. When the drugs are used in combination, two kinds of solution containing each drug were mixed so as to be various ratio of concentration to give a mixed solution. When the sample is subjected to sensitivity test, this mixed solution was diluted by twice serial dilution method.
(§4) Furthermore, when the drug is solely used, each test sample was used as it is, and diluted by twice serial dilution method from the maximum concentration to the minimum concentration.

P. aeruginosa 12790 = format: cell-based, Pseudomonas aeruginosa
Experimental: as §1, §2, §3, §4

P. aeruginosa 13285 = format: cell-based, Pseudomonas aeruginosa
Experimental: as §1, §2, §3, §4

P. aeruginosa 13245 = format: cell-based, Pseudomonas aeruginosa
Experimental: as §1, §2, §3, §4

P. aeruginosa 13280 = format: cell-based, Pseudomonas aeruginosa
Experimental: as §1, §2, §3, §4

P. aeruginosa 12789 = format: cell-based, Pseudomonas aeruginosa
Experimental: as §1, §2, §3, §4

P. aeruginosa 13221 = format: cell-based, Pseudomonas aeruginosa
Experimental: as §1, §2, §3, §4

P. aeruginosa 15032 = format: cell-based, Pseudomonas aeruginosa
Experimental: as §1, §2, §3, §4

P. aeruginosa 15036 = format: cell-based, Pseudomonas aeruginosa
Experimental: as §1, §2, §3, §4

P. aeruginosa 13269 = format: cell-based, Pseudomonas aeruginosa
Experimental: as §1, §2, §3, §4

P. aeruginosa 13250 = format: cell-based, Pseudomonas aeruginosa
Experimental: as §1, §2, §3, §4

P. aeruginosa 15039 = format: cell-based, Pseudomonas aeruginosa
Experimental: as §1, §2, §3, §4

P. aeruginosa 15040 = format: cell-based, Pseudomonas aeruginosa
Experimental: as §1, §2, §3, §4

P. aeruginosa 13272 = format: cell-based, Pseudomonas aeruginosa
Experimental: as §1, §2, §3, §4

B. cepacia 14427 = format: cell-based, Burkholderia cepacia
Experimental: as §1, §2, §3, §4

**Q.** What does the source list for `C[C@@H](O)[C@H]1C(=O)N2C(C(=O)O)=C(S[C@@H]3CN[C@H](C(=O)N(C)C)C3)[C@H](C)[C@H]12` [MEPM, meropenem]?
**A.** MIC (P. aeruginosa 13224; Pseudomonas aeruginosa, 13224, Concomitant (ME:SM = 1:1)): 4 µg/mL; MIC (P. aeruginosa 13224; Pseudomonas aeruginosa, 13224, Concomitant (ME:SM = 1:2)): 2 µg/mL; MIC (P. aeruginosa 13224; Pseudomonas aeruginosa, 13224, Concomitant (ME:SM = 1:4)): 2 µg/mL; MIC (P. aeruginosa 13224; Pseudomonas aeruginosa, 13224, Concomitant (ME:SM = 2:1)): 4 µg/mL; MIC (P. aeruginosa 13224; Pseudomonas aeruginosa, 13224, alone): 4 µg/mL; MIC (P. aeruginosa 12790; Pseudomonas aeruginosa, 12790): 0.125 µg/mL; MIC (P. aeruginosa 12790; Pseudomonas aeruginosa, 12790, Concomitant (ME:SM = 1:1), read-out: MIC): 0.063 µg/mL; MIC (P. aeruginosa 12790; Pseudomonas aeruginosa, 12790, Concomitant (ME:SM = 1:4), read-out: MIC): 0.063 µg/mL; MIC (P. aeruginosa 12790; Pseudomonas aeruginosa, 12790, Concomitant (ME:SM = 2:1), read-out: MIC): 0.031 µg/mL; MIC (P. aeruginosa 12790; Pseudomonas aeruginosa, 12790, alone, read-out: MIC): 0.063 µg/mL; MIC (P. aeruginosa 13285; Pseudomonas aeruginosa, 13285, Concomitant (ME:SM = 1:1)): 4 µg/mL; MIC (P. aeruginosa 13285; Pseudomonas aeruginosa, 13285, Concomitant (ME:SM = 1:2)): 4 µg/mL; MIC (P. aeruginosa 13285; Pseudomonas aeruginosa, 13285, Concomitant (ME:SM = 1:4)): 4 µg/mL; MIC (P. aeruginosa 13285; Pseudomonas aeruginosa, 13285, Concomitant (ME:SM = 2:1)): 4 µg/mL; MIC (P. aeruginosa 13285; Pseudomonas aeruginosa, 13285, alone): 4 µg/mL; MIC (P. aeruginosa 13245; Pseudomonas aeruginosa, 13245, Concomitant (ME:SM = 1:1)): 2 µg/mL; MIC (P. aeruginosa 13245; Pseudomonas aeruginosa, 13245, Concomitant (ME:SM = 1:2)): 1 µg/mL; MIC (P. aeruginosa 13245; Pseudomonas aeruginosa, 13245, Concomitant (ME:SM = 1:4)): 2 µg/mL; MIC (P. aeruginosa 13245; Pseudomonas aeruginosa, 13245, Concomitant (ME:SM = 2:1)): 2 µg/mL; MIC (P. aeruginosa 13245; Pseudomonas aeruginosa, 13245, alone): 2 µg/mL; MIC (P. aeruginosa 13280; Pseudomonas aeruginosa, 13280, Concomitant (ME:SM = 1:1)): 4 µg/mL; MIC (P. aeruginosa 13280; Pseudomonas aeruginosa, 13280, Concomitant (ME:SM = 1:2)): 4 µg/mL; MIC (P. aeruginosa 13280; Pseudomonas aeruginosa, 13280, Concomitant (ME:SM = 1:4)): 4 µg/mL; MIC (P. aeruginosa 13280; Pseudomonas aeruginosa, 13280, Concomitant (ME:SM = 2:1)): 8 µg/mL; MIC (P. aeruginosa 13280; Pseudomonas aeruginosa, 13280, alone): 8 µg/mL; MIC (P. aeruginosa 12789; Pseudomonas aeruginosa, 12789, Concomitant (ME:SM = 1:1)): 0.5 µg/mL; MIC (P. aeruginosa 12789; Pseudomonas aeruginosa, 12789, Concomitant (ME:SM = 1:2)): 0.5 µg/mL; MIC (P. aeruginosa 12789; Pseudomonas aeruginosa, 12789, Concomitant (ME:SM = 1:4)): 0.5 µg/mL; MIC (P. aeruginosa 12789; Pseudomonas aeruginosa, 12789, Concomitant (ME:SM = 2:1)): 0.5 µg/mL; MIC (P. aeruginosa 12789; Pseudomonas aeruginosa, 12789, alone): 0.5 µg/mL; MIC (P. aeruginosa 13221; Concomitant (ME:SM = 1:1)): 0.125 µg/mL; MIC (P. aeruginosa 13221; Concomitant (ME:SM = 1:2)): 0.125 µg/mL; MIC (P. aeruginosa 13221; Pseudomonas aeruginosa, 13221): 0.125 µg/mL; MIC (P. aeruginosa 13221; Pseudomonas aeruginosa, 13221, Concomitant (ME:SM = 1:4), read-out: MIC): 0.063 µg/mL; MIC (P. aeruginosa 13221; Pseudomonas aeruginosa, 13221, Concomitant (ME:SM = 2:1), read-out: MIC): 0.063 µg/mL; MIC (P. aeruginosa 15032; Pseudomonas aeruginosa, 15032, Concomitant (ME:SM = 1:1)): 2 µg/mL; MIC (P. aeruginosa 15032; Pseudomonas aeruginosa, 15032, Concomitant (ME:SM = 1:2)): 1 µg/mL; MIC (P. aeruginosa 15032; Pseudomonas aeruginosa, 15032, Concomitant (ME:SM = 1:4)): 2 µg/mL; MIC (P. aeruginosa 15032; Pseudomonas aeruginosa, 15032, Concomitant (ME:SM = 2:1)): 2 µg/mL; MIC (P. aeruginosa 15032; Pseudomonas aeruginosa, 15032, alone): 2 µg/mL; MIC (P. aeruginosa 15036; Pseudomonas aeruginosa, 15036, Concomitant (ME:SM = 1:1)): 2 µg/mL; MIC (P. aeruginosa 15036; Pseudomonas aeruginosa, 15036, Concomitant (ME:SM = 1:2)): 1 µg/mL; MIC (P. aeruginosa 15036; Pseudomonas aeruginosa, 15036, Concomitant (ME:SM = 1:4)): 2 µg/mL; MIC (P. aeruginosa 15036; Pseudomonas aeruginosa, 15036, Concomitant (ME:SM = 2:1)): 2 µg/mL; MIC (P. aeruginosa 15036; Pseudomonas aeruginosa, 15036, alone): 2 µg/mL; MIC (P. aeruginosa 13269; Pseudomonas aeruginosa, 13269, Concomitant (ME:SM = 1:1)): 4 µg/mL; MIC (P. aeruginosa 13269; Pseudomonas aeruginosa, 13269, Concomitant (ME:SM = 1:2)): 2 µg/mL; MIC (P. aeruginosa 13269; Pseudomonas aeruginosa, 13269, Concomitant (ME:SM = 1:4)): 2 µg/mL; MIC (P. aeruginosa 13269; Pseudomonas aeruginosa, 13269, Concomitant (ME:SM = 2:1)): 4 µg/mL; MIC (P. aeruginosa 13269; Pseudomonas aeruginosa, 13269, alone): 4 µg/mL; MIC (P. aeruginosa 13250; Pseudomonas aeruginosa, 13250, Concomitant (ME:SM = 1:1)): 0.5 µg/mL; MIC (P. aeruginosa 13250; Pseudomonas aeruginosa, 13250, Concomitant (ME:SM = 1:2)): 0.25 µg/mL; MIC (P. aeruginosa 13250; Pseudomonas aeruginosa, 13250, Concomitant (ME:SM = 1:4)): 0.5 µg/mL; MIC (P. aeruginosa 13250; Pseudomonas aeruginosa, 13250, Concomitant (ME:SM = 2:1)): 0.5 µg/mL; MIC (P. aeruginosa 13250; Pseudomonas aeruginosa, 13250, alone): 0.5 µg/mL; MIC (P. aeruginosa 15039; Pseudomonas aeruginosa, 15039, Concomitant (ME:SM = 1:1)): 8 µg/mL; MIC (P. aeruginosa 15039; Pseudomonas aeruginosa, 15039, Concomitant (ME:SM = 1:2)): 8 µg/mL; MIC (P. aeruginosa 15039; Pseudomonas aeruginosa, 15039, Concomitant (ME:SM = 1:4)): 4 µg/mL; MIC (P. aeruginosa 15039; Pseudomonas aeruginosa, 15039, Concomitant (ME:SM = 2:1)): 8 µg/mL; MIC (P. aeruginosa 15039; Pseudomonas aeruginosa, 15039, alone): 8 µg/mL; MIC (P. aeruginosa 15040; Pseudomonas aeruginosa, 15040, Concomitant (ME:SM = 1:1)): 4 µg/mL; MIC (P. aeruginosa 15040; Pseudomonas aeruginosa, 15040, Concomitant (ME:SM = 1:2)): 2 µg/mL; MIC (P. aeruginosa 15040; Pseudomonas aeruginosa, 15040, Concomitant (ME:SM = 1:4)): 2 µg/mL; MIC (P. aeruginosa 15040; Pseudomonas aeruginosa, 15040, Concomitant (ME:SM = 2:1)): 4 µg/mL; MIC (P. aeruginosa 15040; Pseudomonas aeruginosa, 15040, alone): 4 µg/mL; MIC (P. aeruginosa 13272; Pseudomonas aeruginosa, 13272, Concomitant (ME:SM = 1:1)): 4 µg/mL; MIC (P. aeruginosa 13272; Pseudomonas aeruginosa, 13272, Concomitant (ME:SM = 1:2)): 2 µg/mL; MIC (P. aeruginosa 13272; Pseudomonas aeruginosa, 13272, Concomitant (ME:SM = 1:4)): 2 µg/mL; MIC (P. aeruginosa 13272; Pseudomonas aeruginosa, 13272, Concomitant (ME:SM = 2:1)): 4 µg/mL; MIC (P. aeruginosa 13272; Pseudomonas aeruginosa, 13272, alone): 4 µg/mL; MIC (B. cepacia 14427; Burkholderia cepacia, 14427, Concomitant (ME:SM = 1:1)): 1 µg/mL; MIC (B. cepacia 14427; Burkholderia cepacia, 14427, Concomitant (ME:SM = 1:2)): 0.5 µg/mL; MIC (B. cepacia 14427; Burkholderia cepacia, 14427, Concomitant (ME:SM = 1:4)): 0.5 µg/mL; MIC (B. cepacia 14427; Burkholderia cepacia, 14427, Concomitant (ME:SM = 2:1)): 1 µg/mL; MIC (B. cepacia 14427; Burkholderia cepacia, 14427, alone): 1 µg/mL
